≈ marks a conversion by molar mass, not a printed value. *1 amine or outer side, *2 acyl side, *3 side chain or, on linkers, in order; H or OH if unused. Where a SMILES comes first, the peptide text is derived from it. [ ]: non-standard residue; d: D form. Gly(N-4-hydroxybenzyl) = O=C(O)CNCc1ccc(O)cc1; X1 = O=C(CN(Cc1ccc(C(F)(F)F)cc1)[*:1])[*:2]; Gly(N-cPent) = O=C(O)CNC1CCCC1; Gly(NCH2cPr) = O=C(O)CNCC1CC1; N(cBu)Gly = O=C(O)CNC1CCC1; Nphe = O=C(O)CNCc1ccccc1
Legend:
[1] = system: AMPK phosphorylation; assay: AMPK phosphorylation activity in mouse adipocytes (Western blot); assay type: cell-based; settings: 3T3-L1, 10 μM, 24 hours; for AMPK phosphorylation activity (fold change): Western blot, APN5 = 1.0
Protocol: There were confirmed effects of the peptoid derivative of the present disclosure on the expression and receptor activity of adiponectin in mouse adipocytes as a main adiponectin production site. A mouse adipocyte cell line 3T3-L1 was treated with each of the peptoid derivatives of the present disclosure at a concentration of 10 μM and cultured for 24 hours, and then cells were obtained. Thereafter, the protein was extracted and the effect of adiponectin on AMPK phosphorylation, which was responsible for the main downstream signaling, was confirmed by Western blot.

[2] = target: T1, adiponectin receptor 1 (Mus musculus, UniProt Q91VH1); assay: Loss of AMPK phosphorylation activity after knockdown of adiponectin receptor 1; assay type: cell-based; settings: 3T3-L1, adiponectin receptor 1 siRNA, 10 μM, 24 hours
T1 construct: a mouse adipocyte cell line 3T3-L1 was treated with siRNA of an adiponectin receptor 1 to be knocked down; endogenous in cells; host or cells: 3T3-L1 mouse adipocyte cell line
T1 sequence (Q91VH1 1-375): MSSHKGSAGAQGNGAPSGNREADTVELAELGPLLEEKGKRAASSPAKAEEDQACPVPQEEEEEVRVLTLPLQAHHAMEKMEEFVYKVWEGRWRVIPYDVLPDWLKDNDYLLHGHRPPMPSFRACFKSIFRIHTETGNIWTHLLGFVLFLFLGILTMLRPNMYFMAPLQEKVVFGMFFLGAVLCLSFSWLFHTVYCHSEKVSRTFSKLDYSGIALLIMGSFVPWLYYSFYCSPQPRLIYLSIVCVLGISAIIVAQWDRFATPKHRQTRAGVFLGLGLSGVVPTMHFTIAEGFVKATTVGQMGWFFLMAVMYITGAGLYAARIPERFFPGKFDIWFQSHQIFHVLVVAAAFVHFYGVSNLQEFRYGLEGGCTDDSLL
Protocol: In order to verify whether the peptoid derivative of the present disclosure bound to an adiponectin receptor 1, a mouse adipocyte cell line 3T3-L1 was treated with siRNA of an adiponectin receptor 1 to be knocked down, and each of the peptoid derivatives of the present disclosure was treated at a concentration of 10 μM and cultured for 24 hours, and then cells were obtained. Thereafter, the proteins were extracted and it was confirmed by Western blot whether AMPK phosphorylation activity, which had been increased by the peptoid derivatives, was lost.

[3] = in vitro; settings: human, plasma
Protocol: (§2) The peptoid derivative of the present disclosure was added at a concentration of 1 μM to two types of plasma (human, rat), placed in each tube, and then cultured at 37° C. for time of 0, 30, 60, 120, and 240 minutes. The tube containing plasma was taken out every time, added with an acetonitrile solution containing an internal standard material (chlorpropamide), vortexed for 5 minutes, and centrifuged for 5 minutes (14,000 rpm, 4° C.). Thereafter, the plasma stability of the peptoid derivative was evaluated by injecting the supernatant into an LC-MS/MS system and analyzing the drug at each time period. At this time, Procaine and Enalapril were used as reference materials for accuracy during a general plasma stability test.
(§3) After the reaction, the amount of drug remaining in each tube was analyzed by LC-MS/MS using Shimadzu Nexera XR system and TSQ vantage (Thermo). The HPLC column was used with a Luna C18 column (2.0×50 mm, 3 μm particle size; Phenomenex, US), and the mobile phase was distilled water (A) containing 0.1% formic acid and acetonitrile (B) containing 0.1% formic acid. Data analysis was performed using Xcalibur (version 1.6.1). In the result analysis, the plasma stability of each peptoid derivative was expressed as % remaining for each time period for the sample without culture.

[4] = physchem; settings: pH 7.4
Protocol: (§4) A PRISMA HT solution was diluted in distilled water at a ratio of 1:40, and then used as a test buffer by adjusting the pH to 7.4.
(§5) 10 mL of the prepared test material was diluted in 190 μL of isopropyl alcohol and prepared. In addition, 75 mL of the test solution and 70 mL of isopropyl alcohol were mixed to be used as a blank sample, and 5 mL of the test material diluted in isopropyl alcohol was added to the blank sample. After the diluted sample was mixed, the absorbance was measured and used as an initial test value. […] Thereafter, the precipitate was removed from the sample using a filter plate, 74 mL of the filtered sample was added with 75 mL of isopropyl alcohol, and then the absorbance was measured and used as the sample value.
(§6) The solubility value of the test material was analyzed using a msol Explore (Solubility explorer program) after measuring the absorbance of each sample through a microplate reader. The average and standard deviation of the experimental values (n=3) repeated three times were calculated using the Excel program.

[5] = in vitro; settings: mouse, microsomes, pH 7.4
Protocol: (§7) Three types of liver microsomes (Human, Rat, Mouse, 0.5 mg/ml), a 0.1 M phosphate buffer solution (pH 7.4), and the peptoid derivative of the present disclosure were added at a concentration of 1 μM and pre-cultured at 37° C. for 5 minutes, and then added with an NADPH Regeneration system solution and cultured at 37° C. for 30 minutes. Thereafter, to terminate the reaction, the mixture was added with an acetonitrile solution containing an internal standard material (chlorpropamide), centrifuged for 5 minutes (14,000 rpm, 4° C.), and then the supernatant was injected into the LC-MS/MS system to analyze a substrate drug, and thus metabolic stability was evaluated.
(§8) The amount of substrate remaining through the reaction was analyzed by LC-MS/MS using Agilent 1290 infinity series pump system (Agilent, USA) and Triple Quad 5500 LC-MS/MS system (Applied Biosystems, USA). The HPLC column was used with a Kinetex C18 column (2.1×100 mm, 1.7 μm particle size; Phenomenex, USA), and the mobile phase was distilled water (A) containing 0.1% formic acid and acetonitrile (B) containing 0.1% formic acid. TurboSpray Ionization was used as an ion source for MS/MS, and a triple quadruple type was used as a mass spectrometer. The produced metabolites were quantified using a multiple reaction monitoring (MRM) quantitative mode, and data analysis was performed using Analyst software (version 1.6.1).

[6] = system: AMPK phosphorylation; assay: Concentration dependence of AMPK phosphorylation activity; assay type: cell-based, mouse; settings: 3T3-L1, 0, 0.01, 0.1, 1, 10, and 100 μM, 24 hours
From the text: Thereafter, the protein was extracted and the effect of the peptoid derivative on AMPK phosphorylation in a concentration-dependent manner was confirmed by Western blot.

[7] = in vitro; settings: rat, plasma
Protocol: as §2, §3

[8] = in vitro; settings: rat, microsomes, pH 7.4
Protocol: as §7, §8

[9] = in vitro; settings: human, microsomes, pH 7.4
Protocol: as §7
(§9) The HPLC column was used with a Kinetex C18 column (2.1×100 mm, 1.7 μm particle size; Phenomenex, USA), and the mobile phase was distilled water (A) containing 0.1% formic acid and acetonitrile (B) containing 0.1% formic acid. TurboSpray Ionization was used as an ion source for MS/MS, and a triple quadruple type was used as a mass spectrometer. The produced metabolites were quantified using a multiple reaction monitoring (MRM) quantitative mode, and data analysis was performed using Analyst software (version 1.6.1).

[10] = Plasma stability test, rat plasma; settings: 1 μM, 37° C.
Protocol: as §2, §3

[11] = Solubility test; settings: test buffer pH 7.4, DMSO test standard solution, room temperature 24 hours, n=3
Protocol: as §4, §5, §6

[12] = Metabolic stability test, rat liver microsomes; settings: rat liver microsomes 0.5 mg/ml, 1 μM, NADPH, 37° C.
Protocol: as §7, §8

[13] = Metabolic stability test, human liver microsomes; settings: human liver microsomes 0.5 mg/ml, 1 μM, NADPH, 37° C.
Protocol: as §7, §9

[14] = target: CYP2C9 (Homo sapiens, UniProt P11712); assay: CYP inhibition assay, CYP2C9; settings: 10 μM
Sequence of CYP2C9 (P11712 whole entry): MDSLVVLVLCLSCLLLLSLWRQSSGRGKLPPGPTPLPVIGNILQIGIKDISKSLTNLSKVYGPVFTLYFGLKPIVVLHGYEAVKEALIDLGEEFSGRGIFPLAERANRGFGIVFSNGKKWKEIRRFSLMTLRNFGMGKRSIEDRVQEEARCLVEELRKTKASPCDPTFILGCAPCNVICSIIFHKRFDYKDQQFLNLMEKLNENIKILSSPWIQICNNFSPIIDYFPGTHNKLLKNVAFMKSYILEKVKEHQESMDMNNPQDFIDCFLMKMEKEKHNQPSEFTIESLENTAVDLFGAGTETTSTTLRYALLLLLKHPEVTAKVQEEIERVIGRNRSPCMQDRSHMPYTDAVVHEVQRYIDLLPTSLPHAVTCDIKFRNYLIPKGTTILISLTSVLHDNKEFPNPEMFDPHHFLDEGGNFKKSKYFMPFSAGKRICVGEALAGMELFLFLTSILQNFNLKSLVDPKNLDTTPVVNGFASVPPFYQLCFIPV
Protocol: (§1) Metabolites of each CYP isoenzyme indicator drug produced through the reaction were analyzed by LC-MS/MS using the Shimadzu Nexera XR system and TSQ vantage (Thermo).

[15] = Plasma stability test, human plasma; settings: 1 μM, 37° C.
Protocol: as §2, §3

[16] = target: CYP2C19 (Homo sapiens, UniProt P33261); assay: CYP inhibition assay, CYP2C19; settings: 10 μM
Sequence of CYP2C19 (P33261 whole entry): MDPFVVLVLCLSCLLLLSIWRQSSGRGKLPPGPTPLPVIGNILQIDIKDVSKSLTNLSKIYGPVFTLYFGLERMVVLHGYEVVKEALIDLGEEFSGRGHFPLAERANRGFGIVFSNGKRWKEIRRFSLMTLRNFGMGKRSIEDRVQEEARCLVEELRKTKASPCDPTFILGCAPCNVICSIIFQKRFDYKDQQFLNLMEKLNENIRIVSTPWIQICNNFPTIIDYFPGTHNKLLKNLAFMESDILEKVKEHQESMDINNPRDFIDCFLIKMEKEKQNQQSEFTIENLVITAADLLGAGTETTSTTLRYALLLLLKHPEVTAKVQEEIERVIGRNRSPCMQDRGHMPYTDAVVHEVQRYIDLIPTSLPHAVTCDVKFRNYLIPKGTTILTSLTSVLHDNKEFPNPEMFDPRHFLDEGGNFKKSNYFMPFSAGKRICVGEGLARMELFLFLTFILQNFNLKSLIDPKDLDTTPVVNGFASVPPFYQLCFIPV
Protocol: as §1

[17] = Metabolic stability test, mouse liver microsomes; settings: mouse liver microsomes 0.5 mg/ml, 1 μM, NADPH, 37° C.
Protocol: as §7, §8

[18] = target: T2, CYP1A2 (Homo sapiens, UniProt P05177); assay: CYP inhibition assay, CYP1A2; settings: human liver microsomes 0.25 mg/ml, 10 μM, 15 minutes
T2 sequence (P05177 1-516): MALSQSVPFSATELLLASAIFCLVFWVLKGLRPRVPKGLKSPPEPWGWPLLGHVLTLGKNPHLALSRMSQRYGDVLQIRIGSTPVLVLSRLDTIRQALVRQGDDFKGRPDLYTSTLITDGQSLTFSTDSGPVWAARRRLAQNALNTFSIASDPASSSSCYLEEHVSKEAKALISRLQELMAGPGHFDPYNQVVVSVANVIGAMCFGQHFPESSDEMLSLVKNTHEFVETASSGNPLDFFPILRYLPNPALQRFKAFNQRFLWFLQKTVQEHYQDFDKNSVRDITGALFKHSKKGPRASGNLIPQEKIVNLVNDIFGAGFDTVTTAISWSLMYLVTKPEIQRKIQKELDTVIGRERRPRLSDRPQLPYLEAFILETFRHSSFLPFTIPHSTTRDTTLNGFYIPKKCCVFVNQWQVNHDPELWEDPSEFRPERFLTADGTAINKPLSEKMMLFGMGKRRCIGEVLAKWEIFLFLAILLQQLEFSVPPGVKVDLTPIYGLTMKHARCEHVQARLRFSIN
Protocol: as §1

[19] = human liver microsomes 0.25 mg/ml, 15 minutes
[20] = human, microsomes, 15 min, pH 7.4

SMILES	remaining at 0.5 h, 1 μM [3] [%]	remaining at 2 h, 1 μM [3] [%]	solubility at 24 h [4] [µg/mL]	remaining at 0.5 h, 1 μM [5] [%]	remaining at 0.5 h, 1 μM [7] [%]	remaining at 2 h, 1 μM [7] [%]	remaining at 0.5 h, 1 μM [8] [%]	remaining at 0.5 h, 1 μM [9] [%]	Plasma stability (% remaining) Rat, 30 m [10] [% remaining]	Plasma stability (% remaining) Rat, 120 m [10] [% remaining]	effect of increasing AMPK phosphorylation activity compared to APN5 [1]	AMPK phosphorylation activity (fold change) [1] [fold change]	AMPK phosphorylation activity after knockdown of the adiponectin receptor 1 [2]	further results
NCC(=O)N(CC(=O)N(CC(=O)N(CC(=O)N(CC(N)=O)Cc1ccccc1)Cc1ccc(O)cc1)Cc1ccc(O)cc1)C1CCC1 [DS-15, Ngly-Ncba-Ntyr-Ntyr-Nbn-NH2] (H-G[N(cBu)Gly][Gly(N-4-hydroxybenzyl)][Gly(N-4-hydroxybenzyl)][Nphe]-NH2)	–	–	–	–	–	–	–	–	–	–	significant effect of increasing AMPK phosphorylation activity	1.2	reduced the AMPK phosphorylation activity	–
NCC(=O)N(CC(=O)N(CC(=O)N(CC(=O)N(CC(N)=O)Cc1ccccc1)Cc1ccc(O)cc1)Cc1ccc(O)cc1)C1CCCC1 [DS-16, Ngly-Ncpe-Ntyr-Ntyr-Nbn-NH2] (H-G[Gly(N-cPent)][Gly(N-4-hydroxybenzyl)][Gly(N-4-hydroxybenzyl)][Nphe]-NH2)	> 100	> 100	333 (≈ 495 µM)	75.5	> 100	99.5	79.8	87.1	–	–	significant effect of increasing AMPK phosphorylation activity	1.4	reduced the AMPK phosphorylation activity	concentration dependence of AMPK phosphorylation activity [6]: increased AMPK phosphorylation activity in a concentration-dependent manner
NCC(=O)N(CC(=O)N(CC(=O)N(CC(=O)N(CC(N)=O)Cc1ccccc1)Cc1ccc(O)cc1)Cc1ccccc1)C1CCCC1 [DS-25, Ngly-Ncpe-Nbn-Ntyr-Nbn-NH2] (H-G[Gly(N-cPent)][Nphe][Gly(N-4-hydroxybenzyl)][Nphe]-NH2)	98.6	98.4	325 (≈ 495 µM)	76	> 100	95.9	80.9	93.6	–	–	significant effect of increasing AMPK phosphorylation activity	2.1	reduced the AMPK phosphorylation activity	concentration dependence of AMPK phosphorylation activity [6]: increased AMPK phosphorylation activity in a concentration-dependent manner
NCC(=O)N(CC(=O)N(CC(=O)N(CC(=O)N(CC(N)=O)Cc1ccc(C(F)(F)F)cc1)Cc1ccccc1)Cc1ccccc1)C1CCCC1 [DS-47, Ngly-Ncpe-Nbn-Ntfb-Nbn-NH2] (H-G[Gly(N-cPent)][Nphe][Nphe][X1]-NH2)	> 100	> 100	351 (≈ 495 µM)	95.3	> 100	> 100	73	77.2	–	–	significant effect of increasing AMPK phosphorylation activity	1.6	reduced the AMPK phosphorylation activity	–
NCC(=O)N(CCC(=O)O)CC(=O)N(CC(=O)N(CC(=O)N(CC(N)=O)Cc1ccccc1)Cc1ccc(C(F)(F)F)cc1)Cc1ccc(C(F)(F)F)cc1 [DS-71, Ngly-Nasp-Ntfp-Ntfp-Nbn-NH2]	> 100	> 100	73.3 (≈ 93.8 µM)	84.4	> 100	> 100	> 100	> 100	–	–	–	–	–	–
CC(=O)N1CCN(c2ccc(OCC3COC(Cn4ccnc4)(c4ccc(Cl)cc4Cl)O3)cc2)CC1 (stereo not drawn) [Ketoconazole]	–	–	–	–	–	–	–	–	–	–	–	–	–	CYP inhibition (% of control activity) CYP1A2 [18]: 97.2 % of control activity; CYP inhibition (% of control activity) CYP2C9 [14, 20]: >100 % of control activity; CYP inhibition (% of control activity) CYP2C19 [16, 20]: >100 % of control activity

The next lines start with results.

remaining at 0.5 h, 1 μM [3] [%]	remaining at 2 h, 1 μM [3] [%]	solubility at 24 h [4] [µg/mL]	remaining at 0.5 h, 1 μM [5] [%]	remaining at 0.5 h, 1 μM [7] [%]	remaining at 2 h, 1 μM [7] [%]	remaining at 0.5 h, 1 μM [8] [%]	remaining at 0.5 h, 1 μM [9] [%]	Plasma stability (% remaining) Rat, 30 m [10] [% remaining]	Plasma stability (% remaining) Rat, 120 m [10] [% remaining]	SMILES	effect of increasing AMPK phosphorylation activity compared to APN5 [1]	AMPK phosphorylation activity (fold change) [1] [fold change]	AMPK phosphorylation activity after knockdown of the adiponectin receptor 1 [2]	further results
> 100	> 100	–	72.2	> 100	> 100	83.7	93.7	–	–	NCC(=O)N(CC(=O)N(CC(=O)N(CC(=O)N(CC(N)=O)Cc1ccccc1)Cc1ccc(O)cc1)Cc1ccc(O)cc1)CC1CC1 [DS-31, Ngly-Ncpr-Ntyr-Ntyr-Nbn-NH2] (H-G[Gly(NCH2cPr)][Gly(N-4-hydroxybenzyl)][Gly(N-4-hydroxybenzyl)][Nphe]-NH2)	–	–	–	–
–	–	–	–	–	–	–	–	>100	>100	O=C(COc1ccc(C(=O)c2ccccc2)cc1)NC1CCN(Cc2ccccc2)CC1 [DS-43, adiporon]	–	1.2	–	Average DMSO solubility [11]: 43.7 µg/mL; Metabolic stability (% remaining) Rat, 30 m [12]: 2.3 % remaining; Metabolic stability (% remaining) Human, 30 m [13]: 54.9 % remaining; CYP inhibition (% of control activity) CYP2C9 [14, 19]: 57.8 % of control activity; Plasma stability (% remaining) Human, 30 m [15]: >100 % remaining; Plasma stability (% remaining) Human, 120 m [15]: >100 % remaining; CYP inhibition (% of control activity) CYP2C19 [16, 19]: 66.0 % of control activity; Metabolic stability (% remaining) Mouse, 30 m [17]: 3.1 % remaining
–	–	–	–	–	–	–	–	27.9	<1	CCOC(=O)[C@H](CCc1ccccc1)N[C@@H](C)C(=O)N1CCC[C@H]1C(=O)O [Enalapril]	–	–	–	Plasma stability (% remaining) Human, 30 m [15]: >100 % remaining; Plasma stability (% remaining) Human, 120 m [15]: 97.4 % remaining
–	–	–	–	–	–	–	–	90.3	57.4	CCN(CC)CCOC(=O)c1ccc(N)cc1 [Procaine]	–	–	–	Plasma stability (% remaining) Human, 30 m column, cell marked (5 min) ([15]; 5 min as printed in the cell): 2.8 (5 min) % remaining; Plasma stability (% remaining) Human, 120 m column, cell marked (5 min) ([15]; 5 min as printed in the cell): <1 (5 min) % remaining

Reference: patent publication US20250051390A1, “NOVEL ADIPONECTIN-DERIVED PEPTOID DERIVATIVE AND USE THEREOF” (SEOUL NATIONAL UNIVERSITY HOSPITAL, priority 2021, published 2025)
